System: HT-29 orthotopic xenograft colorectal tumors
Test: EVOC of orthotopic colon tumors, pERK and H&E/BrDu
Assay type: cell-based, human
Settings: AZD4547 0.5 μM, 96 hours of incubation
Text: 500-700 μmm^3 tumors were resected, sliced, and cultured ex-vivo. Following 4 days of drug treatment, slices were fixed and embedded in paraffin blocks. FFPE slices were stained by H&E, and the percentage of viable cancer cells was morphologically assessed on H&E stained sections by a pathologist as the ratio between viable cancer cell area and total cancer area (viable cancer cells plus necrotic cancer cells). […] Each black dot in a given treatment condition represents a different tumor. P-values were calculated by two-sided t-test. *** P<0.001 ** P<0.01. Error bars represent standard error. […] Names of the six secreted factors with the highest rScore are shown. Factors related to TNF pathways are marked in gray. Results represent the average of at least two experiments. […] Cohort size pre-treatment: 5-6, P-values of the difference on the last day of experiment were calculated by one-sided Mann-Whitney test. * P<0.05. […] Viability percentage was calculated based on the entire field of view per treatment combination. […] FFPE slices were stained by pERK and pERK activity was assessed by a pathologist. […]
For the ex-vivo experiments EVOCs from immunocompromised mice bearing human tumors were generated, as further described hereinbelow. For the in-vivo validation experiments, mice bearing subcutaneous tumors were used; and response was measured by evaluating tumor volume. […]

Substance: AZD4547
- H&E and BrDu staining of tissue: live and proliferating tissue

— US20240133870A1, “COMBINED TREATMENT FOR CANCER” (Yeda Research and Development Co. Ltd., priority 2021, published 2024)
